Results taken from PMC12627933, “A First-In-Human Study of the SUMOylation Inhibitor Subasumstat in Patients with Advanced/Metastatic Solid Tumors or Relapsed/Refractory Hematologic Malignancies” (Cancer Research Communications, 2025).

Test: Safety: treatment-emergent adverse events (NCI CTCAE v5.0; CRS per ASTCT), phase I/II study NCT03648372
Type: in vivo
Protocol: This study comprised two parts: a phase I dose escalation and a phase II dose expansion (Fig. 1). In the dose-escalation phase, patients were enrolled to receive subasumstat intravenously as a 1-hour (±10 minutes) infusion on days 1, 4, 8, and 11 of a 21-day cycle (biweekly schedule). […] Dose escalation was based on cohort with an adaptive design using Bayesian logistic regression modeling with overdose control. The starting dose of subasumstat was based on Good Laboratory Practice animal toxicity studies and supported by the estimation of a minimum anticipated biologically effective level. A detailed description of dose-limiting toxicities (DLT) is presented in the Supplementary Methods.
The phase II dose-expansion portion enrolled patients to receive the recommended phase II dose (RP2D) determined in phase I, with each cohort assessed separately using an adaptive two-stage design for a single proportion (see Supplementary Methods). For stage 1, each cohort was analyzed when a prespecified number of patients were enrolled and had the potential to have at least one posttreatment scan [i.e., after the first disease assessment, 2 months from cycle 1 day 1 (C1D1)]. If the prespecified minimal response rate was not achieved in the first stage for a given cohort, that cohort would be closed to enrollment. […] The final analysis of the primary endpoints for each cohort would take place when all ongoing patients had the opportunity to complete the 6-month disease assessment. Across both phases, patients received subasumstat for up to 1 year or until confirmed disease progression, unacceptable toxicity, if any withdrawal criterion from the study was met, or if discontinuation of subasumstat occurred.
The occurrence of DLTs was assessed during cycle 1 (DLTs are described in the Supplementary Methods). Treatment-emergent adverse events (TEAE) were graded according to NCI Common Terminology Criteria for Adverse Events version 5.0, except for cytokine release syndrome (CRS), which was graded according to the American Society for Transplantation and Cellular Therapy Consensus Grading for CRS ([20]).
It was anticipated that approximately 70 DLT-evaluable patients would be enrolled for dose escalation. The safety analysis set included all patients who received at least one dose, even if incomplete, of subasumstat. […] The overall response rate (ORR) was defined as the proportion of patients who achieved complete response and partial response (PR) during the study. The disease control rate (DCR) was defined as the proportion of patients who achieved […] as per RECIST v1.1 for solid tumors or Lugano classification for lymphomas. […] Progression-free survival was summarized descriptively using the Kaplan–Meier method.

Cc1sc(C(=O)c2cncnc2N[C@@H]2C[C@H](COS(N)(=O)=O)[C@@H](O)C2)cc1[C@@H]1NCCc2ccc(Cl)cc21 [subasumstat]
0 n (%): Grade ≥3 TEAE: Aspartate aminotransferase increased (Phase II (n = 25)) | Grade ≥3 TEAE: Blood bilirubin increased (Phase II (n = 25)) | Grade ≥3 TEAE: Dyspnea (Phase II (n = 25)) | Grade ≥3 TEAE: Fatigue (Phase II (n = 25)) | Grade ≥3 TEAE: Hypokalemia (Phase II (n = 25)) | Grade ≥3 TEAE: Hypomagnesemia (Phase II (n = 25)) | Grade ≥3 TEAE: Hypophosphatemia (Phase II (n = 25)) | Grade ≥3 TEAE: Lymphocyte count decreased (Phase II (n = 25)) | Grade ≥3 TEAE: Nausea (Phase II (n = 25)) | Grade ≥3 TEAE: Pleural effusion (Phase II (n = 25)) | Grade ≥3 TEAE: Pneumonitis (Phase II (n = 25)) | Grade ≥3 TEAE: Pyrexia (Phase II (n = 25)) | Grade ≥3 TEAE: Small intestinal obstruction (Phase II (n = 25)) | Grade ≥3 TEAE: Vomiting (Phase II (n = 25)) | Grade ≥3 subasumstat-related TEAE: Aspartate aminotransferase increased (Phase II (n = 25)) | Grade ≥3 subasumstat-related TEAE: Hypokalemia (Phase II (n = 25)) | Grade ≥3 subasumstat-related TEAE: Lymphocyte count decreased (Phase II (n = 25)) | Grade ≥3 subasumstat-related TEAE: Pneumonitis (Phase II (n = 25)) | Subasumstat-related TEAE: Hypokalemia (Phase II (n = 25))
4 (16.0) n (%): Grade ≥3 TEAE: Neutropenia (Phase II (n = 25)) | Grade ≥3 subasumstat-related TEAE: Neutropenia (Phase II (n = 25)) | Subasumstat-related TEAE: Anemia (Phase II (n = 25))
15 (17.9) n (%): TEAE: Peripheral edema (Phase I (n = 84))
65 (77.4) n (%): TEAEs related to subasumstat (Phase I (n = 84))
11 (44.0) n (%): Grade ≥3 TEAEs related to subasumstat (Phase II (n = 25)) | Patients with at least one grade ≥3 subasumstat-related TEAE (Phase II (n = 25)) | Serious adverse events (Phase II (n = 25))
3 (3.6) n (%): TEAEs leading to discontinuation related to subasumstat (Phase I (n = 84))
18 (72.0) n (%): Grade ≥3 TEAEs (Phase II (n = 25)) | Patients with at least one grade ≥3 TEAE (Phase II (n = 25))
5 (20.0) n (%): Grade ≥3 TEAE: Anemia (Phase II (n = 25)) | Serious adverse events related to subasumstat (Phase II (n = 25)) | Subasumstat-related TEAE: Headache (Phase II (n = 25))
42 (50.0) n (%): TEAE: Fatigue (Phase I (n = 84))
81 (96.4) n (%): TEAEs (Phase I (n = 84))
8 (9.5) n (%): TEAE: Stomatitis (Phase I (n = 84)) | TEAEs leading to discontinuation (Phase I (n = 84))
28 (33.3) n (%): TEAE: Pyrexia (Phase I (n = 84))
6 (24.0) n (%): Subasumstat-related TEAE: Chills (Phase II (n = 25)) | Subasumstat-related TEAE: Diarrhea (Phase II (n = 25))
11 (13.1) n (%): TEAE: Hypophosphatemia (Phase I (n = 84)) | TEAE: Insomnia (Phase I (n = 84))
1 (4.0) n (%): Grade ≥3 TEAE: Hypertension (Phase II (n = 25)) | Grade ≥3 TEAE: Lymphopenia (Phase II (n = 25)) | Grade ≥3 TEAE: Pneumonia (Phase II (n = 25)) | Grade ≥3 TEAE: Thrombocytopenia (Phase II (n = 25)) | Grade ≥3 subasumstat-related TEAE: Thrombocytopenia (Phase II (n = 25)) | Subasumstat-related TEAE: IRR (Phase II (n = 25))
2 (8.0) n (%): Grade ≥3 TEAE: Abdominal pain (Phase II (n = 25)) | Grade ≥3 TEAE: Acute kidney injury (Phase II (n = 25)) | Grade ≥3 TEAE: Hyperbilirubinemia (Phase II (n = 25)) | Grade ≥3 TEAE: Muscular weakness (Phase II (n = 25)) | Grade ≥3 TEAE: Platelet count increased (Phase II (n = 25)) | Grade ≥3 subasumstat-related TEAE: Muscular weakness (Phase II (n = 25)) | Grade ≥3 subasumstat-related TEAE: Platelet count increased (Phase II (n = 25)) | On-study deaths (Phase II (n = 25)) | Subasumstat-related TEAE: Dyspnea (Phase II (n = 25)) | Subasumstat-related TEAE: Myalgia (Phase II (n = 25))
7 (28.0) n (%): Subasumstat-related TEAE: Fatigue (Phase II (n = 25))
41 (48.8) n (%): TEAE: Nausea (Phase I (n = 84))
22 (26.2) n (%): TEAE: Dyspnea (Phase I (n = 84))
30 (35.7) n (%): TEAE: Headache (Phase I (n = 84))
3 (12.0) n (%): AESI (adverse event of special interest) (Phase II (n = 25)) | AESI related to subasumstat (Phase II (n = 25)) | AESI: CRS (Phase II (n = 25)) | Grade ≥3 subasumstat-related TEAE: Anemia (Phase II (n = 25)) | Subasumstat-related TEAE: CRS (Phase II (n = 25)) | Subasumstat-related TEAE: Decreased appetite (Phase II (n = 25))
9 (10.7) n (%): TEAE: Pleural effusion (Phase I (n = 84))
27 (32.1) n (%): TEAE: Vomiting (Phase I (n = 84))
